Measured values published in patent US20260263406A1, “SYNERGISTIC COMPOSITION FOR MODULATING EXPRESSION OF CD38” (CELAGENEX RESEARCH (INDIA) PVT. LTD., priority 2023, published 2026).

What was measured:
Type in all cases: in vivo, Sprague-Dawley rats
[1] = system: CD38; assay: Western blot of CD38 expression in liver tissues of streptozotocin-induced diabetic rats; details: STZ diabetic rats, liver tissue, daily treatment for 28 days from day 15 after STZ, densitometry, n=6; normal control 100, diabetic control 112
[2] = system: GLUT4; assay: Western blot of GLUT4 expression in skeletal muscles of streptozotocin-induced diabetic rats; details: STZ diabetic rats, skeletal muscle membrane, daily treatment for 28 days from day 15 after STZ, i.p. (Table 1), densitometry, n=6; normal control 100, diabetic control 80
[3] = system: CD38; assay: Western blot of CD38 expression in liver tissues of streptozotocin-induced diabetic rats; set-up: % Decrease of CD38 Disease control: concentration or dose not given beside the values; details: STZ diabetic rats; for % Decrease of CD38 Disease control: liver tissue, 28 days treatment, versus diabetic control G2
Description: (§1) “To evaluate the antidiabetic potential of the present compositions and its mechanistic role in controlling damages of vital tissues in streptozotocin-induced diabetic rats.”
(§2) • Species: Rats • Strain: Sprague-Dawley • Sex: Male • No. of animals: 36 Animals (n=6 per group) • Body weight: 110-130 g Animal House conditions • Lighting: 12/12-hour light-dark cycle • Temperature: 22±3° C. • Relative Humidity: 40 to 60%
(§3) Acclimatization: Animals have been acclimatized to the animal house environment for 2 weeks. The animal experiments were designed and conducted strictly in accordance with the guidelines of AEC. Streptozotocin (STZ) was freshly prepared in 0.1M citrate buffer (pH 4.5). T2D was induced experimentally by single intraperitoneal (i.p.) injection of low dose STZ (40 mg per kg) to the rats, kept fasted overnight. Animals were unfed for 12 h before the estimation of fasting blood glucose. When the fasting plasma glucose level had become above 250 mg dL-1 in 72 h after STZ administration, STZ treated animals were considered as diabetic and all the experimental animals were then kept without any treatment for a period of 2 weeks. The composition treatment was started on 15th day after STZ injection in the respective groups of rats.
(§4) Test sample was dissolved in water containing 0.1% v/v Dimethyl Sulfoxide (DMSO) for animal treatment. Diabetic rats were then treated with intracerebroventricular (i.c.v.) administration of test samples. The animals were divided in six groups each of which contained six rats:
(§5) Daily food and water consumptions were observed and body weights were taken on a weekly basis. After 72 h of STZ administration, blood was drawn from tail vein of rats and fasting blood glucose was measured by glucometer. On the last day of the experiment, all rats were sacrificed by common method of euthanasia. All animals were unfed for 12 h before being killed. Liver, kidneys, pancreas tissues and skeleton muscles were removed surgically and stored at −80° C. in a deep freezer for western blot analysis.
(§6) GLUT4 and CD38 expressions were evaluated by Western blot. For GLUT4 content analysis, membrane samples were prepared from skeletal muscles and for CD38 protein analysis, liver tissues were used. In Western blot analysis, 25 μg of membrane protein per sample was subjected to Sodium Dodecyl Sulfate (SDS) polyacrylamide gel electrophoresis in parallel with molecular weight markers on a 10% resolving gel. The separated proteins were then transferred to a nitrocellulose membrane in a semidry system. β-tubulin was used to ensure equivalent loading of the gel incubating the same membrane with β-tubulin antibody after stripping.
(§7) Western blotting kit was used for immunodetection, using anti-GLUT4 and anti-CD38 antibodies. Detection was done by the enhanced chemiluminescence method and densitometric quantitation was done by scanning of the autoradiographic GLUT4 and CD38 signals with the help of software. Densitometric scanning was indicated the (percentage of band intensity) of GLUT4 bands and CD38 bands of test samples treated diabetic rats and diabetic control rats. Data were expressed as percentage increase or decrease of intensity of band.
(§8) Each value represents mean±SD (n=6). The significance of in vivo data was analyzed by one-way Anova followed by Dunnet test. P<0.05 was considered as significant.

[4] = system: GLUT4; assay: Western blot of GLUT4 expression in skeletal muscles of streptozotocin-induced diabetic rats; set-up: concentration or dose not given beside the values; details: STZ diabetic rats, skeletal muscle, 28 days treatment, versus diabetic control G2
Description: as §1, §2, §3, §4, §5, §6, §7, §8

Row | Compound | Band Intensity of CD38 (%) 45 kDa [1] [%] | Band Intensity of GLUT4 (%) 54 kDa [2] [%] | % Decrease of CD38 Disease control [3] [%] | % Increase of Glut4 over Disease control [4] [%] | downregulation of CD38 (result in words) ([3]; discussion of the Western blot results)
1 | CC(CN)C(=O)O (stereo not drawn) [Composition G4, 3-Aminoisobutyric acid] | 99 | 104 | 11.6 | 30.0 | 
2 | C[S+]([O-])CCCCN=C=S (stereo not drawn) [Composition G5, 1-isothiocyanato-4-methylsulfinylbutane] | 102 | 95 | 8.9 | 18.8 | 
3 | CCCCCCCCCCCCCCC(=O)O [Composition G8, Pentadecanoic acid] | 103 | 100 | 8.0 | 25.0 | 
4 | CC(C)CC(N)C(=O)NC(CC(C)C)C(=O)O (stereo not drawn) [Composition G9, Dileucine] | 99 | 98 | 11.6 | 22.5 | 
5 | C[C@H](O)C(=O)N[C@@H](Cc1ccccc1)C(=O)O [Composition G7, (2S)-2-[[(2S)-2-hydroxypropanoyl]amino]-3-phenylpropanoic acid] | 96 | 106 | 14.3 | 32.5 | 
6 | CC1=C(O)C(=O)C=C2C1=CC=C1[C@@]2(C)CC[C@@]2(C)[C@@H]3C[C@](C)(C(=O)O)CC[C@]3(C)CC[C@]12C [Composition G10, (2R,4aS,6aR,6aS,14aS,14bR)-10-hydroxy-2,4a,6a,6a,9,14a-hexamethyl-11-oxo-1,3,4,5,6,13,14,14b-octahydropicene-2-carboxylic acid] | 101 | 95 | 9.8 | 18.8 | 
7 | O=C(O)CC(=O)C(=O)O [Composition G6, Oxobutanedioic acid] | 101 | 102 | 9.8 | 27.5 | 
8 | CC1=CC(=O)CC(C)(C)[C@@]1(O)/C=C/C(C)=C\C(=O)O [Composition G3, (2Z,4E)-5-[(1S)-1-hydroxy-2,6,6-trimethyl-4-oxocyclohex-2-en-1-yl]-3-methylpenta-2,4-dienoic acid] | 95 | 110 | 15.2 | 37.5 | not sufficient to give significant results
